Drawing on patent publication US20240279221A1, “HETEROCYCLIC COMPOUNDS AND METHODS OF USE” (Schrödinger, Inc., priority 2021, published 2024), this text covers IC50 for 28 molecules.

The assay deals with SOS1:KRAS (G12C) interaction (Homo sapiens (Human), UniProt Q07889). The experiment in a line: SOS1-KRas(G12C) FRET Assay. Type of assay: binding. The following applies: 0.5 nM His10-SOS1 (res. 564-1049), 2.5 nM GST-KRAS (res. 1-169, G12C); read-out: SOS-KRas(G12C) FRET IC50. On the procedure: Inhibition of the SOS1:KRAS interaction was measured using purified GST-tagged KRAS (res. 1-169, G12C, purified based on Hillig, et al., Proc Natl Acad Sci USA (2019); 116(7):2551-2560) and recombinant His10-SOS1 (res. 564-1049; purified based on Hillig, et al.). The final assay was performed at 20 uL with 0.5 nM SOS1 protein and 2.5 nM KRAS protein in a buffer of PBS, 0.1% BSA, 5 mM MgCl2, 0.0025% Igepal, 100 mM KF, 5 mM DTT in a white 384 square well OptiPlate (PerkinElmer, Cat. 6007290). A 2× KRAS working solution was prepared in an assay buffer containing 5 nM GST-KRAS G12C and 2 nM anti-GST-Eu(K) (Cisbio, Cat. 61GSTKLA) and pre-incubated for 15 minutes at 25° C. Compounds were serially diluted in 100% DMSO from 2 mM (positive control, compound I-13, PCT Publ. No. WO2018/115380) or 20 mM and then diluted 1:20 in assay buffer before incubation with a solution of SOS1 protein mixed 1:5 with anti-6His-XL665 FRET donor (Cisbio, Cat. 61HISXL) for 15 minutes at 25° C. before addition of 2× KRAS working solution. The final DMSO concentration is 0.5%. Plates were incubated at RT for 2 hrs before the FRET signal was measured using Envision at emission 665 nm and 615 nm. FRET signal was converted to percentage of protein-protein interaction using the following equation:
[formula] • C: signal with compound treatment • P: signal for positive control (DMSO) • N: signal for negative control (no SOS1 added) • IC50 and Hill coefficients were obtained using Graph Pad Prism (Graph Pad software, Inc, USA) with non-linear regression analysis.

SOS1:KRAS (G12C) interaction, sequence (Q07889 564-1049, stated change not applied): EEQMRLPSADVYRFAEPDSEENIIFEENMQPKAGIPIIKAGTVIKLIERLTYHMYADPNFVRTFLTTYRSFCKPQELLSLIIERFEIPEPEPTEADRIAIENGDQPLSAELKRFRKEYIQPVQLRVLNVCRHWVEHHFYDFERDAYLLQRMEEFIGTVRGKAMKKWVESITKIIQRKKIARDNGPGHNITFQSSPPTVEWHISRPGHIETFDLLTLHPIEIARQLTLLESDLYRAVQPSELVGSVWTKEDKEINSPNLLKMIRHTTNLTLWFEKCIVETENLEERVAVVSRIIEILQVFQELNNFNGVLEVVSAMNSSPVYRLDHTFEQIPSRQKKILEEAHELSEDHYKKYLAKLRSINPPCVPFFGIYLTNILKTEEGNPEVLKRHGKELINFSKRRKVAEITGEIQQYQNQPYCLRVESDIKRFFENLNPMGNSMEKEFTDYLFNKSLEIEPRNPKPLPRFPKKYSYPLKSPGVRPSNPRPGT

For `C[C@@H](Nc1nn(C)c(=O)c2cc(=O)n(C3(C(F)F)CC3)cc12)c1cccc2cccn12` [Example 114, (R)-6-(1-(difluoromethyl)cyclopropyl)-4-((1-(indolizin-5-yl)ethyl)amino)-2-methyl-2,6-dihydropyrido[3,4-d]pyridazine-1,7-dione], the IC50 was found to be 2.06 µM.

As for `C[C@@H](Nc1nn(C)c(=O)c2cc(=O)n([C@]34COC[C@H]3C4)cc12)c1cccc(C(F)F)c1F` [Example 148, 4-[[(1R)-1-[3-(difluoromethyl)-2-fluoro-phenyl]ethyl]amino]-2-methyl-6-[(1S,5S)-3-oxabicyclo[3.1.0]hexan-1-yl]pyrido[3,4-d]pyridazine-1,7-dione], the IC50 is 0.0405 µM. In the case of `CC(=O)N1CC(C(F)F)(n2cc3c(N[C@H](C)c4cccc(C(F)F)c4F)nn(C)c(=O)c3cc2=O)C1` [Example 154, (R)-6-(1-acetyl-3-(difluoromethyl)azetidin-3-yl)-4-((1-(3-(difluoromethyl)-2-fluorophenyl)ethyl)amino)-2-methylpyrido[3,4-d]pyridazine-1,7(2H,6H)-dione], the half-maximal inhibitory concentration (IC50) stood at 0.0185 µM.

Regarding `Cc1cc([C@H](C)Nc2nn(C)c(=O)c3cc(=O)n(C4CC4)cc23)cc(C(F)(F)F)c1` [Example 117, 6-cyclopropyl-2-methyl-4-[[(1S)-1-[3-methyl-5-(trifluoromethyl)phenyl]ethyl]amino]pyrido[3,4-d]pyridazine-1,7-dione], the IC50 amounted to 0.568 µM. Turning to `C[C@@H](Nc1nn(C)c(=O)c2c(OC3COC3)c(=O)n(C3(C(F)F)CC3)cc12)c1cccc(C(F)F)c1F` [Example 88, (R)-4-((1-(3-(difluoromethyl)-2-fluorophenyl)ethyl)amino)-6-(1-(difluoromethyl)cyclopropyl)-2-methyl-8-(oxetan-3-yloxy)pyrido[3,4-d]pyridazine-1,7(2H,6H)-dione], the IC50 was 0.0835 µM. The figure for `C[C@@H](Nc1nn(C)c(=O)c2cc(=O)n([C@]3(C(F)(F)F)CCOC3)cc12)c1cccc2c1OCC2(F)F` (single isomer, unassigned) [Example 169] is 0.262 µM. On to `COc1c(=O)n(C2CCOCC2)cc2c(N[C@H](C)c3cccc(C(C)(F)F)c3F)nn(C)c(=O)c12` [Example 37, (R)-4-((1-(3-(1,1-difluoroethyl)-2-fluorophenyl)ethyl)amino)-8-methoxy-2-methyl-6-(tetrahydro-2H-pyran-4-yl)-2,6-dihydropyrido[3,4-d]pyridazine-1,7-dione], for which the IC50 was 0.0304 µM. The figure for `C[C@@H](Nc1nn(C)c(=O)c2c(OCCN(C)C)c(=O)n(C3(C(F)F)CC3)cc12)c1cccc(C(F)F)c1F` [Example 86, (R)-4-((1-(3-(difluoromethyl)-2-fluorophenyl)ethyl)amino)-6-(1-(difluoromethyl)cyclopropyl)-8-(2-(dimethylamino)ethoxy)-2-methyl-2,6-dihydropyrido[3,4-d]pyridazine-1,7-dione] is 0.0353 µM.

For the molecule `C[C@@H](Nc1nn(C)c(=O)c2cc(=O)n(C3(CN4CC(F)C4)CC3)cc12)c1cccc(C(F)F)c1F` [Example 124, (R)-4-((1-(3-(difluoromethyl)-2-fluorophenyl)ethyl)amino)-6-(1-((3-fluoroazetidin-1-yl)methyl)cyclopropyl)-2-methylpyrido[3,4-d]pyridazine-1,7(2H,6H)-dione], the IC50 was 0.886 µM. `C[C@@H](Nc1nn(C)c(=O)c2cc(=O)n([C@@]3(C(F)(F)F)CCN(C)C3)cc12)c1cccc(C(F)F)c1F` (single isomer, unassigned) [Example 97]: the IC50 came to 0.0656 µM.

In the case of `C[C@@H](Nc1nn(C)c(=O)c2cc(=O)n([C@H]3CC3(C)C)cc12)c1cccc(C(F)F)c1F` (single isomer, unassigned) [Example 133], the 50% inhibitory concentration (IC50) worked out at 0.245 µM. As to `C[C@H](Nc1nn(C)c(=O)c2cc(=O)n(C3(C(F)F)CC3)cc12)c1cccc(C(F)(F)c2ccncc2)c1F` [Example 175, (S)-4-((1-(3-(difluoro(pyridin-4-yl)methyl)-2-fluorophenyl)ethyl)amino)-6-(1-(difluoromethyl)cyclopropyl)-2-methyl-2,6-dihydropyrido[3,4-d]pyridazine-1,7-dione], the IC50 came out at 4.49 µM.

As to `C[C@@H](Nc1nn(C)c(=O)c2cc(=O)n([C@]3(C(F)(F)F)CCNC3)cc12)c1cccc(C(F)F)c1F` (single isomer, unassigned) [Example 95], the IC50 stood at 0.394 µM.

As for `CC(=O)N1C[C@@H]2C[C@]2(n2cc3c(N[C@H](C)c4cccc(C(F)F)c4F)nn(C)c(=O)c3cc2=O)C1` (single isomer, unassigned) [Example 140], the IC50 stood at 0.0313 µM. With `CC(=O)N1CC[C@](n2cc3c(N[C@H](C)c4cccc(C(F)F)c4F)nn(C)c(=O)c3cc2=O)(C(F)(F)F)C1` (single isomer, unassigned) [Example 100], the IC50 stood at 1.92 µM. Consider `CC(=O)N1CC[C@](n2cc3c(N[C@H](C)c4cccc5c(F)coc45)nn(C)c(=O)c3cc2=O)(C(F)(F)F)C1` (single isomer, unassigned) [Example 173], for which the IC50 came out at 2.79 µM. `C[C@@H](Nc1nn(C)c(=O)c2cc(=O)n([C@H]3C[C@@H]3C3CC3)cc12)c1cccc(C(F)F)c1F` (single isomer, unassigned) [Example 135]: the IC50 came to 0.0705 µM.

Regarding `Cc1cnc(C(F)(F)c2cccc([C@@H](C)Nc3nn(C)c(=O)c4cc(=O)n(C5(C(F)F)CC5)cc34)c2F)cn1` [Example 176, (R)-4-((1-(3-(difluoro(5-methylpyrazin-2-yl)methyl)-2-fluorophenyl)ethyl)amino)-6-(1-(difluoromethyl)cyclopropyl)-2-methyl-2,6-dihydropyrido[3,4-d]pyridazine-1,7-dione], the IC50 was determined as 0.0201 µM. Turning to `CC(Nc1nn(C)c(=O)c2cc(=O)n(C3CC3)cc12)c1cc(F)cc(C(F)(F)F)c1` (stereo not shown) [Example 159, 6-cyclopropyl-4-((1-(3-fluoro-5-(trifluoromethyl)phenyl)ethyl)amino)-2-methylpyrido[3,4-d]pyridazine-1,7(2H,6H)-dione], the IC50 was found to be 3.48 µM. In the case of `C[C@@H](Nc1nn(C)c(=O)c2cc(=O)n(C3(C)CNC3)cc12)c1cccc(C(F)F)c1F` [Example 152, (R)-4-((1-(3-(difluoromethyl)-2-fluorophenyl)ethyl)amino)-2-methyl-6-(3-methylazetidin-3-yl)pyrido[3,4-d]pyridazine-1,7(2H,6H)-dione], the IC50 turned out to be 0.248 µM. Consider `C[C@@H](Nc1nn(C)c(=O)c2cc(=O)n([C@@H]3C[C@H]3C(F)(F)F)cc12)c1cccc(C(F)F)c1F` (single isomer, unassigned) [Example 138], for which the IC50 came to 0.434 µM. Take `C[C@@H](Nc1nn(C)c(=O)c2cc(=O)n([C@H]3CC34CCC(F)(F)CC4)cc12)c1cccc(C(F)F)c1F` (single isomer, unassigned) [Example 130]: the IC50 was determined as 0.0826 µM. For the molecule `C[C@@H](Nc1nn(C)c(=O)c2cc(=O)n(C3(CO)CC3)cc12)c1cccc(C(F)F)c1F` [Example 123, (R)-4-((1-(3-(difluoromethyl)-2-fluorophenyl)ethyl)amino)-6-(1-(hydroxymethyl)cyclopropyl)-2-methylpyrido[3,4-d]pyridazine-1,7(2H,6H)-dione], the IC50 was found to be 0.366 µM. `CNC(=O)C(F)(F)c1cccc([C@@H](C)Nc2nn(C)c(=O)c3cc(=O)n(C4CC4)cc23)c1F` [Example 107, (R)-2-(3-(1-((6-cyclopropyl-2-methyl-1,7-dioxo-1,2,6,7-tetrahydropyrido[3,4-d]pyridazin-4-yl)amino)ethyl)-2-fluorophenyl)-2,2-difluoro-N-methylacetamide]: the IC50 worked out at 0.271 µM. Regarding `Cc1cc([C@@H](C)Nc2nn(C)c(=O)c3cc(=O)n(C4CC4)cc23)cc(C(F)(F)F)c1` [Example 118, 6-cyclopropyl-2-methyl-4-[[(1R)-1-[3-methyl-5-(trifluoromethyl)phenyl]ethyl]amino]pyrido[3,4-d]pyridazine-1,7-dione], the IC50 was over 10 µM.

Take `C[C@@H](Nc1nn(C)c(=O)c2cc(=O)n([C@@H]3CC34CCC(F)(F)CC4)cc12)c1cccc(C(F)F)c1F` (single isomer, unassigned) [Example 131]: the IC50 came out at 0.277 µM. `CCn1nc(N[C@H](C)c2cccc(C(F)(F)F)c2C)c2cn(C3CC3)c(=O)cc2c1=O` [Example 8, (R)-6-cyclopropyl-2-ethyl-4-((1-(2-methyl-3-(trifluoromethyl)phenyl)ethyl)amino)-2,6-dihydropyrido[3,4-d]pyridazine-1,7-dione]: the IC50 was 1.31 µM.

Regarding `C[C@@H](Nc1nn(C)c(=O)c2cc(=O)n(C3(C(F)F)CC3)cc12)c1cccc2ccnn12` [Example 116, (R)-6-(1-(difluoromethyl)cyclopropyl)-2-methyl-4-((1-(pyrazolo[1,5-a]pyridin-7-yl)ethyl)amino)-2,6-dihydropyrido[3,4-d]pyridazine-1,7-dione], the IC50 was over 10 µM.
